Measured values as given in patent US20010041716A1, “Compositions and methods for locally treating inflammatory diseases” (priority 1999, published 2001).
In brackets after ≈: the same amount, converted by molar mass. Like-named read-outs stand apart in the source and are kept apart here. Marks after values point to notes of the source that are not given here.

Assays:
[1] = for Lag time TL = SD / Permeability coefficient P ± SD × 10^−3: pH 6
Experimental: Skin Preparation and Permeation: The human cadaver skin used in the permeation studies was obtained from the Anatomical Donation Program at the University of Michigan. Vertical Franz diffusion cells with a 4 ml capacity receptor compartment and a 0.8 cm^2 diffusion area were used in the permeation studies. The epidermal layer of the skin was mounted carefully onto the lower half of the cells of the difflusion apparatus with the stratum corneum facing up. The receptor compartments were filled with isotonic phosphate buffer (pH 6.4). The temperature of the cell system was maintained at 32° C. by circulating water from a constant temperature water bath through the jacket of the lower compartment of each cell assembly. To begin an experiment, the donor compartment was charged with 300 μl of fresh prepared saturated solution of the drug and covered immediately with Parafilm to prevent any significant evaporation of volatile components of the applied medium during the absorption experiment. At predetermined times, samples were taken and were directly assayed by HPLC to determine the drug concentration of each. Care was taken to maintain skin conditions.
The permeability coefficient for a given run was calculated from Fick's law of diffuision: [formula]
dC/dt is the steady-state slope of a plot of the amount of substance which had penetrated the skin against time in terms of jig/h. It was determined by taking the ratio of the total amount permeated in an interval of time to the length of the time interval.
A is the difflusional area, which was 0.8 cm^2.
ΔC is the concentration differential existing across the membrane. This was effectively equal to the saturation concentration in the donor phase (μg/ml) as, through total exchange sampling, a near zero receiver concentration (sink condition) was closely approximated. AC is, in effect, the thermodynamic force driving mass transfer. The maximum driving force is seen at the saturation solubility (excluding supersaturation).
VR is the volume of the receiver compartment (4 ml).
The permeation parameters (flux, J; lag time, TL and permeability coefficient, P) of thalidomide and its N-alkyl analogs from their saturated aqueous solutions (pH 6.0) and an ethanol/water/octanol vehicle are summarized in Table 4. The permeation data were plotted as the cumulative amount of drug penetrated through skin as a function of time. The steady-state flux was determined from the slope of the linear portion of the cumulative amount-time plot. The lag time (TL) was determined by extrapolating the linear portion of the curve to its intersection with the time axis. […] A bar plot of the mean steady-state flux and standard deviations (SD) for thalidomide and its N-alkyl analogs from water can be seen in FIG. 5. […] Typical cumulative amount permeated-time profiles for thalidomide and its N-alkyl analogs from the ethanol/water/octanol (Formulation C) vehicle are shown in FIG. 6.

[2] = n-octanol / phosphate buffer (pH 6.4)
[3] = 25° C.
[4] = Experimental: Differential Thermal Analysis: The heat of fusion (ΔHf) and the entropy of fusion (ΔSf) of thalidomide and its N-alkyl analogs were determined with a Perkin-Elmer DSC7 Differential Scanning Calorimeter (DSC), which was calibrated with an indium standard.
Using this surmise, the solubility parameters for all the solutes were calculated. […] In each case the solutions are considered ideal at the peak of their parabolas.

[5] = test system: TNFα; settings: PBMCs stimulated in vitro with LPS; previous studies; cited from earlier work

Row | SMILES | Maximum steady-state flux [1] [μg/cm^2/h] | Lag time TL = SD [1] [h] | Permeability coefficient P ± SD × 10^−3 [1] | Koct ± SD (octanol/water partition coefficient) [2] | Solubility, Hexane ± SD [3] [µg/mL] | Solubility, Water (pH 6.4) ± SD [3] [μg/ml] | Solubility, Water (pH 6.4) ± SD ([3]; listed as N-methyl thalidomide) [μg/ml] | Activity of solid phase a2^s, ΔCp = 0 [4] | Activity of solid phase a2^s, ΔCp = ΔSp [4] | Ln X2,ideal, ΔCp = 0 [4] | Ln X2,ideal, ΔCp = ΔSr [4] | Solubility parameter δ2 (Hexane), ΔCp = 0 [4] | Solubility parameter δ2 (Hexane), ΔCp = ΔSr [4] | Solubility, Water (pH 6.4) ± SD ([3]; listed as thalidomide) [μg/ml] | Inhibition of TNFα production [5]
1 | CN1C(=O)CCC(N2C(=O)c3ccccc3C2=O)C1=O (stereo not shown) [N-Methyl Thalidomide, N-methyl thalidomide] | 11.47 | 2.8 ± 0.5 | 1.17 ± 0.22 × 10^−3 (cm/h) | 14.1 ± 1.05 | 90 ± 0 (≈ 331 µM) | 275.9 ± 6.39 | 276 | 1.03 × 10^−1 | 1.54 × 10^−1 | −2.27 | −1.87 | 12.2 (cal/cm^3)^½ | 12.3 (cal/cm^3)^½ |  | 
2 | CCCCCN1C(=O)CCC(N2C(=O)c3ccccc3C2=O)C1=O (stereo not shown) [N-Pentyl Thalidomide, N-pentyl thalidomide] |  | 3 ± 1.6 | 19.68 ± 6.31 × 10^−3 (cm/h) | 129 ± 1.05 | 220 ± 10 (≈ 670 µM) | 57.3 ± 1.46 |  | 1.29 × 10^−1 | 1.64 × 10^−1 | −2.05 | −1.81 | 11.2 (cal/cm^3)^½ | 11.2 (cal/cm^3)^½ |  | 
3 | O=C1CCC(N2C(=O)c3ccccc3C2=O)C(=O)N1 (stereo not shown) [Thalidomide, a-phthalimidoglutarimide, reference compound] |  | 2.2 ± 1.4 | <0.16 ± 0.00^b) × 10^−3 (cm/h) | 3.09 ± 1.03 | 0.1 ± 0 (≈ 0.387 µM) | 52.1 ± 1.49 |  | 1.29 × | 8.07 × | −6.65 | −4.82 | 13.2 (cal/cm^3)^½ | 13.7 (cal/cm^3)^½ | 52 | partially inhibit TNFα production
